Test results as given in ChEMBL document CHEMBL1909294, “Translating clinical findings into knowledge in drug safety evaluation--drug induced liver injury prediction system (DILIps)” (PLoS Comput Biol, 2011).

Tests used:
[1] = tested on: Hepatotoxicity;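 as to HepSE cholecystitis: Cholecystitis-related hepatic side effect score drawn from the DILIps (drug-induced liver injury prediction) training data set; call rule not given here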;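 as to HepSE elevated liver function tests: hepatic side effect score for raised liver function tests, as recorded in the DILIps training set used for predicting drug-induced liver injury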; as to HepSE hepatic failure: call rule not given here;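 as to HepSE hepatic necrosis: score of hepatic side effects for hepatic necrosis, drawn from the training data of DILIps, a prediction system for drug-induced liver injury; call rule not given here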;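 as to HepSE hepatomegaly: hepatic side effect score for hepatomegaly, taken from the training set of the DILIps drug-induced liver injury prediction system; call rule not given here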;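 as to HepSE liver function tests abnormal: hepatic side effect score taken from the DILIps (drug-induced liver injury prediction system) training data, here covering abnormal liver function test findings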
[2] = tested on: Hepatotoxicity; remark: listed apart in the source;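 as to HepSE cholecystitis: Cholecystitis-related hepatic side effect score drawn from the DILIps (drug-induced liver injury prediction) training data set; call rule not given here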;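 as to HepSE elevated liver function tests: hepatic side effect score for raised liver function tests, as recorded in the DILIps training set used for predicting drug-induced liver injury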; as to HepSE hepatic failure: call rule not given here;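 as to HepSE hepatic necrosis: score of hepatic side effects for hepatic necrosis, drawn from the training data of DILIps, a prediction system for drug-induced liver injury; call rule not given here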;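 as to HepSE hepatomegaly: hepatic side effect score for hepatomegaly, taken from the training set of the DILIps drug-induced liver injury prediction system; call rule not given here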;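 as to HepSE liver function tests abnormal: hepatic side effect score taken from the DILIps (drug-induced liver injury prediction system) training data, here covering abnormal liver function test findings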
[3] = tested on: Hepatotoxicity; remark: listed apart in the source;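 as to HepSE cholecystitis: Cholecystitis-related hepatic side effect score drawn from the DILIps (drug-induced liver injury prediction) training data set; call rule not given here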;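 as to HepSE elevated liver function tests: hepatic side effect score for raised liver function tests, as recorded in the DILIps training set used for predicting drug-induced liver injury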; as to HepSE hepatic failure: call rule not given here;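 as to HepSE hepatic necrosis: score of hepatic side effects for hepatic necrosis, drawn from the training data of DILIps, a prediction system for drug-induced liver injury; call rule not given here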;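 as to HepSE hepatomegaly: hepatic side effect score for hepatomegaly, taken from the training set of the DILIps drug-induced liver injury prediction system; call rule not given here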;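 as to HepSE liver function tests abnormal: hepatic side effect score taken from the DILIps (drug-induced liver injury prediction system) training data, here covering abnormal liver function test findings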
[4] = tested on: Hepatotoxicity; remark: listed apart in the source;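 as to HepSE cholecystitis: Cholecystitis-related hepatic side effect score drawn from the DILIps (drug-induced liver injury prediction) training data set; call rule not given here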;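 as to HepSE elevated liver function tests: hepatic side effect score for raised liver function tests, as recorded in the DILIps training set used for predicting drug-induced liver injury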; as to HepSE hepatic failure: call rule not given here;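 as to HepSE hepatic necrosis: score of hepatic side effects for hepatic necrosis, drawn from the training data of DILIps, a prediction system for drug-induced liver injury; call rule not given here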;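 as to HepSE hepatomegaly: hepatic side effect score for hepatomegaly, taken from the training set of the DILIps drug-induced liver injury prediction system; call rule not given here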;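 as to HepSE liver function tests abnormal: hepatic side effect score taken from the DILIps (drug-induced liver injury prediction system) training data, here covering abnormal liver function test findings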
[5] = tested on: Hepatotoxicity; remark: listed apart in the source; as to HepSE hepatic failure: call rule not given here
[6] = tested on: Hepatotoxicity; remark: listed apart in the source; as to HepSE hepatic failure: call rule not given here
[7] = tested on: Hepatotoxicity; remark: listed apart in the source
[8] = tested on: Hepatotoxicity; remark: listed apart in the source
[9] = tested on: Hepatotoxicity; remark: listed apart in the source
[10] = tested on: Hepatotoxicity; remark: listed apart in the source
[11] = tested on: Hepatotoxicity; remark: listed apart in the source
[12] = tested on: Hepatotoxicity; remark: listed apart in the source
[13] = tested on: Hepatotoxicity; remark: listed apart in the source
[14] = tested on: Hepatotoxicity; remark: listed apart in the source

CCCCCCC(C)(C)c1cc(O)c2c(c1)OC(C)(C)C1CCC(=O)CC21 (configuration not stated) [NABILONE]
0: HepSE_cholecystitis [1] | HepSE_liver function tests abnormal [2] | HepSE_elevated liver function tests [3] | HepSE_hepatomegaly [4] | HepSE_hepatic failure [5] | HepSE_hepatic necrosis [6] | HepSE_Combined Scores [7] | HepSE_hepatitis [8] | HepSE_liver disease [9] | HepSE_jaundice [10] | HepSE_cholelithiasis [11] | HepSE_cirrhosis [12] | HepSE_bilirubinemia [13] | HepSE_liver fatty [14]

[Mg]
0: HepSE_cholecystitis [1] | HepSE_liver function tests abnormal [2] | HepSE_elevated liver function tests [3] | HepSE_hepatomegaly [4] | HepSE_hepatic failure [5] | HepSE_hepatic necrosis [6] | HepSE_Combined Scores [7] | HepSE_hepatitis [8] | HepSE_liver disease [9] | HepSE_jaundice [10] | HepSE_cholelithiasis [11] | HepSE_cirrhosis [12] | HepSE_bilirubinemia [13] | HepSE_liver fatty [14]

COc1ccccc1OCC(O)CN1CCN(CC(=O)Nc2c(C)cccc2C)CC1 (configuration not stated) [RANOLAZINE]
0: HepSE_cholecystitis [1] | HepSE_liver function tests abnormal [2] | HepSE_elevated liver function tests [3] | HepSE_hepatomegaly [4] | HepSE_hepatic failure [5] | HepSE_hepatic necrosis [6] | HepSE_Combined Scores [7] | HepSE_hepatitis [8] | HepSE_liver disease [9] | HepSE_jaundice [10] | HepSE_cholelithiasis [11] | HepSE_cirrhosis [12] | HepSE_bilirubinemia [13] | HepSE_liver fatty [14]

OCCN1CCN(CCCN2c3ccccc3Sc3ccc(C(F)(F)F)cc32)CC1 [FLUPHENAZINE]
0: HepSE_cholecystitis [1] | HepSE_liver function tests abnormal [2] | HepSE_elevated liver function tests [3] | HepSE_hepatomegaly [4] | HepSE_hepatic failure [5] | HepSE_hepatic necrosis [6] | HepSE_liver disease [9] | HepSE_cholelithiasis [11] | HepSE_cirrhosis [12] | HepSE_bilirubinemia [13] | HepSE_liver fatty [14]
1: HepSE_hepatitis [8] | HepSE_jaundice [10]
2: HepSE_Combined Scores [7]

Cc1ccc(Cl)c(Nc2ccccc2C(=O)O)c1Cl [MECLOFENAMIC ACID]
0: HepSE_cholecystitis [1] | HepSE_liver function tests abnormal [2] | HepSE_elevated liver function tests [3] | HepSE_hepatomegaly [4] | HepSE_hepatic failure [5] | HepSE_hepatic necrosis [6] | HepSE_hepatitis [8] | HepSE_liver disease [9] | HepSE_cholelithiasis [11] | HepSE_cirrhosis [12] | HepSE_bilirubinemia [13] | HepSE_liver fatty [14]
1: HepSE_Combined Scores [7] | HepSE_jaundice [10]

C[C@]12C=CC(=O)C=C1CC[C@@H]1[C@@H]2[C@@H](O)C[C@@]2(C)[C@H]1CC[C@]2(O)C(=O)CO [PREDNISOLONE]
0: HepSE_cholecystitis [1] | HepSE_liver function tests abnormal [2] | HepSE_elevated liver function tests [3] | HepSE_hepatic failure [5] | HepSE_hepatic necrosis [6] | HepSE_hepatitis [8] | HepSE_liver disease [9] | HepSE_jaundice [10] | HepSE_cholelithiasis [11] | HepSE_cirrhosis [12] | HepSE_bilirubinemia [13] | HepSE_liver fatty [14]
1: HepSE_hepatomegaly [4] | HepSE_Combined Scores [7]

Cc1c(OCC(F)(F)F)ccnc1C[S+]([O-])c1nc2ccccc2[nH]1 (configuration not stated) [LANSOPRAZOLE]
0: HepSE_cholecystitis [1] | HepSE_elevated liver function tests [3] | HepSE_hepatomegaly [4] | HepSE_hepatic failure [5] | HepSE_hepatic necrosis [6] | HepSE_hepatitis [8] | HepSE_liver disease [9] | HepSE_cirrhosis [12] | HepSE_liver fatty [14]
1: HepSE_liver function tests abnormal [2] | HepSE_jaundice [10] | HepSE_cholelithiasis [11] | HepSE_bilirubinemia [13]
4: HepSE_Combined Scores [7]

CCN(Cc1ccncc1)C(=O)C(CO)c1ccccc1 (configuration not stated) [TROPICAMIDE]
0: HepSE_cholecystitis [1] | HepSE_liver function tests abnormal ([2]; Liver) | HepSE_elevated liver function tests ([3]; Liver) | HepSE_hepatomegaly [4] | HepSE_hepatic failure [5] | HepSE_hepatic necrosis [6] | HepSE_Combined Scores [7] | HepSE_hepatitis [8] | HepSE_liver disease [9] | HepSE_jaundice [10] | HepSE_cholelithiasis [11] | HepSE_cirrhosis [12] | HepSE_bilirubinemia [13] | HepSE_liver fatty [14]

CCCc1nc2c(C)cc(-c3nc4ccccc4n3C)cc2n1Cc1ccc(-c2ccccc2C(=O)O)cc1
1: HepSE_Combined Scores [7] | HepSE_liver disease [9]
0: HepSE_cholecystitis [1] | HepSE_liver function tests abnormal [2] | HepSE_elevated liver function tests [3] | HepSE_hepatomegaly [4] | HepSE_hepatic failure [5] | HepSE_hepatic necrosis [6] | HepSE_hepatitis [8] | HepSE_jaundice [10] | HepSE_cholelithiasis [11] | HepSE_cirrhosis [12] | HepSE_bilirubinemia [13] | HepSE_liver fatty [14]

C[C@@H]1C[C@H]2[C@@H]3CCC4=CC(=O)C=C[C@]4(C)[C@@]3(Cl)[C@@H](O)C[C@]2(C)[C@@]1(O)C(=O)CCl [MOMETASONE]
0: HepSE_cholecystitis [1] | HepSE_liver function tests abnormal [2] | HepSE_elevated liver function tests [3] | HepSE_hepatomegaly [4] | HepSE_hepatic failure [5] | HepSE_hepatic necrosis [6] | HepSE_Combined Scores [7] | HepSE_hepatitis [8] | HepSE_liver disease [9] | HepSE_jaundice [10] | HepSE_cholelithiasis [11] | HepSE_cirrhosis [12] | HepSE_bilirubinemia [13] | HepSE_liver fatty [14]

C[C@H](/C=C/[C@H](C)C(C)(C)O)[C@H]1CC[C@H]2/C(=C/C=C3C[C@@H](O)C[C@H](O)C3)CCC[C@]12C [PARICALCITOL]
0: HepSE_cholecystitis [1] | HepSE_liver function tests abnormal [2] | HepSE_elevated liver function tests [3] | HepSE_hepatomegaly [4] | HepSE_hepatic failure [5] | HepSE_hepatic necrosis [6] | HepSE_Combined Scores [7] | HepSE_hepatitis [8] | HepSE_liver disease [9] | HepSE_jaundice [10] | HepSE_cholelithiasis [11] | HepSE_cirrhosis [12] | HepSE_bilirubinemia [13] | HepSE_liver fatty [14]

Cc1nnc2n1-c1ccc(Cl)cc1C(c1ccccc1)=NC2 [ALPRAZOLAM]
3: HepSE_Combined Scores [7]
1: HepSE_hepatic failure [5] | HepSE_hepatitis [8] | HepSE_jaundice [10]
0: HepSE_cholecystitis [1] | HepSE_liver function tests abnormal [2] | HepSE_elevated liver function tests [3] | HepSE_hepatomegaly [4] | HepSE_hepatic necrosis [6] | HepSE_liver disease [9] | HepSE_cholelithiasis [11] | HepSE_cirrhosis [12] | HepSE_bilirubinemia [13] | HepSE_liver fatty [14]

OC(Cn1cncn1)(Cn1cncn1)c1ccc(F)cc1F [FLUCONAZOLE]
0: HepSE_cholecystitis ([1]; Liver) | HepSE_liver function tests abnormal ([2]; Liver) | HepSE_elevated liver function tests ([3]; Liver) | HepSE_hepatomegaly ([4]; Liver) | HepSE_liver disease ([9]; Liver) | HepSE_cholelithiasis ([11]; Liver) | HepSE_cirrhosis ([12]; Liver) | HepSE_bilirubinemia ([13]; Liver) | HepSE_liver fatty ([14]; Liver)
1: HepSE_hepatic failure ([5]; Liver) | HepSE_hepatic necrosis ([6]; Liver) | HepSE_hepatitis ([8]; Liver) | HepSE_jaundice ([10]; Liver)
4: HepSE_Combined Scores ([7]; Liver)
